Among the test systems are ACHN renal; HCT-116 colon; SF-539 CNS; SW-620 colon; MALME-3M melanoma; MOLT-4 leukemia; OVCAR-8 ovarian; EKVX NSCLC; SNB-19 CNS; A498 renal.
Common to all, as to assay: inhibition of tumour cell growth, NCI panel, 48 h

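Five concentrations, 48 hours, 96-well plates. Abbreviation: GI50, concentration required for 50% inhibition of growth. TGI: total growth inhibition.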 Where only a bound is given, the exact number is not on record here.

With `COc1ccc(NC(=O)CC/C(CC(=O)C(C)(C)C)=N\NC(=O)C(N)=O)cc1`, the TGI in the assay on ACHN renal, in the assay on HCT-116 colon, in the assay on SF-539 CNS, with SW-620 colon, with MALME-3M melanoma and with MOLT-4 leukemia was over 100 µM throughout. The TGI in the assay with OVCAR-8 ovarian, in the assay with EKVX NSCLC and in the assay with SNB-19 CNS was over 100 µM each time.

`O=C(/C=C/C=C/c1c(C2CC2)nc2ccccc2c1-c1ccc(F)cc1)c1cccs1`: the GI50 is 1.34 µM in the assay on ACHN renal; 1.67 µM in the assay with A498 renal; 2.39 µM in the assay with SF-539 CNS; 1.67 µM in the assay with SW-620 colon; 1 µM in the assay with MOLT-4 leukemia; 3.58 µM in the assay on OVCAR-8 ovarian. For the same molecule, the GI50 is 3.09 µM in the assay with EKVX NSCLC and 4.05 µM in the assay on SNB-19 CNS. Further, the TGI in the assay on ACHN renal is 3.86 µM; in the assay with A498 renal, 3.58 µM; in the assay on SF-539 CNS it was 6.65 µM; in the assay with SW-620 colon, 11.8 µM; in the assay with MOLT-4 leukemia, over 100 µM; with OVCAR-8 ovarian, over 100 µM. For the same molecule, the TGI in the assay with EKVX NSCLC and with SNB-19 CNS was over 100 µM in each case.

On to `CCOC(=O)C(=O)Nc1ccc(Cl)cc1C`, for which the TGI in the assay with ACHN renal, in the assay on HCT-116 colon, in the assay on SF-539 CNS, in the assay with SW-620 colon, in the assay on MALME-3M melanoma and with MOLT-4 leukemia was over 100 µM throughout. Besides, the TGI with OVCAR-8 ovarian, in the assay on EKVX NSCLC and in the assay on SNB-19 CNS was over 100 µM each time.

For the molecule `Cc1cc2cn3c4ccc(O)cc4[nH]c(=O)c3c2cc1C`, the GI50 is 0.0471 µM in the assay on ACHN renal; 0.0319 µM with A498 renal; 0.0223 µM with SF-539 CNS; 0.0105 µM with SW-620 colon; 0.0359 µM in the assay with OVCAR-8 ovarian; 0.403 µM in the assay with EKVX NSCLC. Further, the GI50 in the assay with SNB-19 CNS was 0.0358 µM. Also, the TGI in the assay with ACHN renal came to 1.64 µM; with A498 renal, 1.43 µM; in the assay with SF-539 CNS, 0.0601 µM; in the assay with SW-620 colon, 1.53 µM; with OVCAR-8 ovarian, 1.31 µM; in the assay with EKVX NSCLC, 1.85 µM. This molecule also showed a TGI with SNB-19 CNS of 1.68 µM.

With `NCCN.NCCN.O=C[O-].O=C[O-].[Co+3].[O-][Cl+3]([O-])([O-])[O-]`, the GI50 in the assay with ACHN renal, in the assay with HCT-116 colon, with A498 renal, in the assay with SF-539 CNS, in the assay with SW-620 colon and in the assay with MOLT-4 leukemia was over 100 µM in each case. Moreover, the GI50 with OVCAR-8 ovarian is over 100 µM. For the same molecule, the TGI with ACHN renal, with HCT-116 colon, in the assay on A498 renal, in the assay with SF-539 CNS, in the assay on SW-620 colon and with MOLT-4 leukemia was over 100 µM throughout. This molecule also displayed a TGI in the assay on OVCAR-8 ovarian of over 100 µM.

Regarding `O=c1cc(-c2ccccc2)oc2cc(O)cc(O)c12`, the TGI came to 33.9 µM in the assay on ACHN renal; 50.9 µM in the assay with HCT-116 colon; 31.3 µM in the assay with SF-539 CNS; 51.8 µM in the assay on MALME-3M melanoma; 61.1 µM in the assay on MOLT-4 leukemia; 72 µM with EKVX NSCLC. Further, in the assay on SNB-19 CNS, the TGI was determined as 88.8 µM.

In the case of `CC(=O)OC1CC2Oc3ccc(C)cc3C(C)(O2)C1=O` (centres undefined), the TGI in the assay with ACHN renal, with HCT-116 colon, in the assay with SF-539 CNS, in the assay on SW-620 colon, with MALME-3M melanoma and in the assay with MOLT-4 leukemia was over 100 µM throughout. In addition, the TGI in the assay with OVCAR-8 ovarian, in the assay on EKVX NSCLC and in the assay with SNB-19 CNS was over 100 µM throughout.

As for `COc1ccc(C(=O)C(c2ccc(OC)cc2)C2OC(=O)C(Cl)=C2Cl)cc1` (centres undefined), the TGI in the assay with ACHN renal, in the assay on HCT-116 colon, with SF-539 CNS, with SW-620 colon, with MALME-3M melanoma and with MOLT-4 leukemia was over 100 µM throughout. The TGI with OVCAR-8 ovarian, in the assay on EKVX NSCLC and with SNB-19 CNS was over 100 µM each time.

Take `CN(C)/N=C(/c1nc2ccc([N+](=O)[O-])cc2[nH]c1=O)C(O)c1ccco1` (centres undefined): the TGI with ACHN renal, in the assay with HCT-116 colon, in the assay with SF-539 CNS, with SW-620 colon, in the assay on MALME-3M melanoma and with MOLT-4 leukemia was over 100 µM each time. In addition, the TGI in the assay on OVCAR-8 ovarian and in the assay on SNB-19 CNS was over 100 µM throughout.

`COC(=O)CCC(=O)Nc1cc(Cl)ccc1Cl`: the TGI in the assay with ACHN renal, in the assay on HCT-116 colon, in the assay with SF-539 CNS, with SW-620 colon, in the assay on MALME-3M melanoma and with MOLT-4 leukemia was over 100 µM each time. Moreover, the TGI with OVCAR-8 ovarian, with EKVX NSCLC and with SNB-19 CNS was over 100 µM each time.

The values are drawn from PubChem BioAssay (NCI).
